Patent US20260071518A1, “SURFACTANT FOR CARBON DIOXIDE STORAGE” (TOTALENERGIES ONETECH, priority 2022, published 2026)

Tests used:
[1] = slim tube packed with sand, co-injection of carbon dioxide and surfactant-brine composition, apparent viscosity (Example 1); type: physicochemical; conditions: 0.2 wt. % in 220 g/L NaCl brine, pH=6, 25° C., 150 bar, carbon dioxide fraction 50%, versus comparative surfactant compounds
Protocol: In this example, experiments were conducted within a slim tube packed with sand. The tube length was 25 cm, the tube diameter was 1 cm.
Various surfactant compositions were made by dissolving 0.2 wt. % of an individual surfactant compound in brine having a NaCl content of 220 g/L, buffered at pH=6 with a sodium acetate/acetic acid buffer.
Carbon dioxide and the surfactant-brine composition were co-injected into the slim tube via two separate inlets, at a temperature of 25° C. and at a pressure of 150 bar, with a total flow rate of 60 ft/day and a carbon dioxide fraction of 50%.
The pressure drop across the tube was measured and the apparent viscosity was calculated based on Darcy's law. Specifically, the apparent viscosity was obtained according to the following formula: (permeability×pressure gradient)/(volume flow/inlet area of the core (tube)).

[2] = carbonate core co-injection of carbon dioxide and surfactant-water composition, gas saturation and apparent viscosity (Example 4); type: physicochemical; conditions: 0.2 wt. % in water, 110° C., 150 bar
Protocol: In this example, experiments were conducted using a carbonate core. The core was 30.1 cm long, having a diameter of 3.8 cm, a porosity of 28%, permeability of 130 md.
A surfactant-water composition was prepared by dissolving 0.2 wt. % of a surfactant compound (compound E of Example 1, N^1-dodecyl-N^3,N^3-dimethylpropane-1,3-diamine) in water.
Carbon dioxide and the surfactant-water composition were co-injected into the carbonate core via two separate inlets, at a temperature of 110° C. and at a pressure of 150 bar, with a total flow rate of 4 ft/day, varying the fraction of carbon dioxide from 50% to 95%. Carbon dioxide and water alone were also co-injected into the carbonate core under the same conditions.
The gas saturation in the core was measured by obtaining a mass balance between what is injected (water+CO2−pump control) and produced water measured by burette (volume) along with a scale (mass).
The apparent viscosity was calculated based on Darcy's law.

rise in apparent viscosity [1]: quicker and higher rise in viscosity | apparent viscosity of the resulting emulsion ([2]; CO2 fraction 50% to 95%, versus absence of surfactant): higher apparent viscosity | change of apparent viscosity with CO2 fraction ([2]; CO2 fraction increased from 50 to 95%): decreased | gas (CO2) saturation increase compared to absence of surfactant ([2]; at each CO2 fraction tested (50% to 95%)): 2-4 fold
Structure (SMILES): CCCCCCCCCCCCNCCCN(C)C [Compound E, N^1-dodecyl-N^3,N^3-dimethylpropane-1,3-diamine]
